Structures can show the parent of a compound that is named as a salt.
Experiments:
[1] = Measurement of oral absorbability (plasma AUC after oral administration); conditions: in vivo, 0.1 mmol/kg in physiological saline, male ICR mouse, plasma concentration of 9-[1'S,2'R-bis(hydroxymethyl)cyclopropan-1'-yl]methylguanine by HPLC, 15 minutes to 4 hours
Method: Each of the test compounds was dissolved in 0.2 ml of physiological saline and orally administered to 5-week-age male ICR mouse in a dose of 0.1 mmol/kg. After 15 minutes, 30 minutes, 1 hour, 2 hours, or 4 hours from the administration, blood was collected from three mice, respectively, and centrifuged at 3,000 rpm for 10 minutes to obtain a plasma. A 20 % trichloroacetic acid aqueous solution (100 µl) was added to the plasma (100 µl), and the resulting mixture was shaken and then centrifuged at 8,000 rpm for 1 minutes to obtain a supernatant. The concentration of 9-[1'S,2'R-bis(hydroxymethyl)cyclopropan-1'-yl]methylguanine in the supernatant was measured by HPLC and the area under the blood concentration time curve (AUC) was calculated.

HSV-1 (Tomioka strain) = test: Efficacy test by oral administration in HSV-1 infected mice; format: in vivo, CDF-1 mouse; set-up: Survival Ratio after 21 days: unit: %; conditions: for Average Survival days / Survival Ratio after 21 days: HSV-1 i.p. infected CDF-1 mice; for Survival Ratio after 21 days: 10 mice per group
Method: A 4-week-age male CDF-1 mouse was intraperitoneally infected with HSV-1 (Tomioka strain) in an amount of 2.4 × 10⁵ pfu/mouse. Three hours after the infection, administration of each test compound was started. The test compound was dissolved in 0.2 ml of distilled water for injection use and intragastrically administered via catheter once a day for 5 days in a dose of 0.625, 1.25, or 2.5 µmol/kg/day. Each of the test groups consisted of 10 mice, and the survival ratio after 21 days from the administration and the average survival days were obtained.

[2] = 0.625 µmol/kg/day intragastrically once a day for 5 days
[3] = 1.25 µmol/kg/day intragastrically once a day for 5 days
[4] = 2.5 µmol/kg/day intragastrically once a day for 5 days

Compound	AUC at 4 h [1] [µM·h]	Average Survival days (HSV-1 (Tomioka strain); [2]) [days]	Survival Ratio after 21 days (HSV-1 (Tomioka strain); [2])	Average Survival days (HSV-1 (Tomioka strain); [3]) [days]	Survival Ratio after 21 days (HSV-1 (Tomioka strain); [3])	Average Survival days (HSV-1 (Tomioka strain); [4]) [days]	Survival Ratio after 21 days (HSV-1 (Tomioka strain); [4])	efficacy (HSV-1 (Tomioka strain); in words, compared with 9-[1'S,2'R-bis(hydroxymethyl)cyclopropan-1'-yl]methylguanine)
Nc1nc2c(ncn2C[C@]2(CO)C[C@H]2CO)c(=O)[nH]1 [9-[1'S,2'R-bis(hydroxymethyl)cyclopropan-1'-yl]methylguanine]	16	7.8 ± 1.2	0	9.4 ± 1.9	0	11.3 ± 3.1	60	
C[C@H](N)C(=O)OC[C@@H]1C[C@@]1(COC(=O)[C@H](C)N)Cn1cnc2c(=O)[nH]c(N)nc21 [Compound of Example 1, 9-[1'S,2'R-bis(O-L-alanyloxymethyl)cyclopropan-1'-yl]methylguanine trihydrochloride]		9.7 ± 2.7	40	14.3 ± 4.1	60		100	superior efficacy

From patent EP0654473A1, “Cyclopropane derivatives and antiviral agents containing the same” (Ajinomoto Co., Inc., priority 1993, dated 1995)
